Test results: patent US4046878A, “Daunomycin analogues, their preparation and use” (Societa' Farmaceutici Italia S.p.A., priority 1974, dated 1977)
In brackets after ≈: the same amount, converted by molar mass. Where two headings read alike, the source gives them in different places.

Assays:
HeLa cells = assay: Viability (colony formation) of HeLa cells in vitro; assay type: cell-based; details: for IC50: Homo sapiens, HeLa, colony numbers 6 days later
Method: In vitro studies were carried out on HeLa cells, maintained in Eagle medium supplemented with 10% calf serum. The cells were treated with daunomycin, adriamycin* and the Test Compound for different periods of times. The cell viability was assessed by […] of 200-300 cells/plate. Colony numbers were evaluated 6 days later.

[1] = test system: Moloney Sarcoma Virus (MSV); assay: Formation of foci by Moloney Sarcoma Virus in infected mouse embryo fibroblast cultures (antiviral activity); assay type: cell-based
Excerpt: In vitro test on the formation of foci by Moloney Sarcoma Virus (MSV).

[2] = test system: ascites sarcoma 180 cells; assay: Ascitic tumors: survival of mice inoculated intraperitoneally with ascites sarcoma 180 cells; assay type: in vivo, mice (Swiss CD 1); details: i.p.
Method: Tests were carried out on groups of 10 mice (Swiss CD 1) inoculated intraperitoneally with 1 × 10^6 ascites sarcoma 180 cells/animal. The animals were treated intraperitoneally with different concentrations of the Test Compound and adriamycin once a day following tumor implantation.
(§1) *% T/C = (mean survival time of treated mice/mean survival time of contro
**The figures in parentheses indicate the number of longterm survivors,
animals, one animal remained alive at the end of 60 days. (*) % T/C =

solid tumors = assay: Solid tumors: tumor weight in mice grafted subcutaneously with fragments of neoplastic tissue; details: for Toxicity / % T/C (mean tumor weight) / Tumor Weight: five days; for Tumor Weight: control 3.036, in g (unit assumed); for therapeutic index (T.I.): Maximum Tolerated dose (LD 10)/Minimum effective dose (T/C 0.10)
Method: In vivo tests on the activity of the Test Compound as compared with adriamycin on solid tumors were carried out on groups of ten Swiss CD 1 mice subcutaneously grafted with fragments of neoplastic tissue and treated intravenously with the respective antibiotics for five days starting form the day following the tumor implantation.
On the tenth day, all the test animals were sacrificed and their tumors removed and weighed.
*The therapeutic index (T.I) is expressed as the ratio between the maximu
tolerated dose (LD10) and the minimum effective dose, according to
Skipper and Schmidt, Cancer Chemother, Rep. 17 : 1-128, 1962. The minimum
effective dose indicates the dose which reduces by 90% the weight of
tumors compared to controls : such 90% reduction correponds to a T/C valu
**% T/C = (mean tumor weight of treated mice/mean tumor weight of control

L 1210 leukemia cells = assay: Leukemia: survival of mice inoculated intraperitoneally with L 1210 leukemia cells; assay type: in vivo, BDF 1 mice; details: for Toxicity / % T/C (mean survival time) / Average Survival Time: once; for % T/C (mean survival time) / Average Survival Time: day after implantation; for Average Survival Time: control 8
Method: The activity of the Test Compound was tested on BDF 1 mice inoculated intraperitoneally with 1×10^5 L 1210 leukemia cells/animal.
The animals were treated once, the day after tumor implantation.
as §1

[3] = test system: mouse embryo fibroblast cultures; assay: Cell proliferation in uninfected mouse embryo fibroblast cultures (cytotoxic activity); details: 3 days
[4] = read-out: ID 50, 2 hrs. treatment
[5] = read-out: ID 50, 8 hrs. treatment
[6] = Fibroblast, 72 h, read-out: % Foci (control = 100)

COc1cccc2c1C(=O)c1c(O)c3c(c(O)c1C2=O)C[C@@](O)(C(C)=O)C[C@@H]3O[C@H]1C[C@H](N)[C@H](O)[C@H](C)O1 [Daunomycin]
IC50 (HeLa cells; [4]): 0.095 µg/mL (≈ 0.18 µM) | IC50 (HeLa cells; [5]): 0.023 µg/mL (≈ 0.0436 µM)

CC(=O)C1(O)Cc2c(O)c3c(c(O)c2C(O[C@H]2C[C@H](N)[C@H](O)[C@H](C)O2)C1)C(=O)c1ccccc1C3=O (mixture of isomers) [Test Compound, mixture of the α-anomers of (-)daunosaminyl(-)4-demethoxydaunomycinone and (-(daunosaminyl(+)4-demethoxydaunomycinone]
activity on HeLa cell viability, in words (HeLa cells; 2 hours of treatment): as active as adriamycin | inhibition of cell viability, in words (HeLa cells; 8 hours of treatment): higher than the inhibition by either adriamycin or daunomycin | IC50 (HeLa cells; 2 hrs. treatment, read-out: ID 50 (the source's name)): 0.2 µg/mL | IC50 (HeLa cells; 8 hrs. treatment, read-out: ID 50 (the source's name)): 0.002 µg/mL | antiviral activity (MSV foci formation), in words ([1]; 3 days): lesser antiviral activity than adriamycin | activity at 0.006 µg/mL ([1]; Fibroblast, 72 h, 0.006 γ/ml, 3 days, read-out: % Foci (control = 100)): 54% | activity at 0.025 µg/mL ([1]; Fibroblast, 72 h, 0.0250 γ/ml, 3 days, read-out: % Foci (control = 100)): 12% | activity at 0.1 µg/mL ([1]; Fibroblast, 72 h, 0.1 γ/ml, 3 days, read-out: % Foci (control = 100)): 0% | activity at 0.6 µg/mL ([1]; Fibroblast, 72 h, 0.6 γ/ml, 3 days, read-out: % Foci (control = 100)): 0% | % T/C, average survival time ([2]; Experiment 1, 1 mg/kg day): 185% | number of longterm survivors, i.e., after 60 days ([2]; Experiment 1, 1 mg/kg day): 0/10 | % T/C, average survival time ([2]; Experiment 1, 2 mg/kg day): 61% | number of longterm survivors, i.e., after 60 days ([2]; Experiment 1, 2 mg/kg day): 1/10 | % T/C, average survival time ([2]; Experiment 1, 5 mg/kg day): 38% | number of longterm survivors, i.e., after 60 days ([2]; Experiment 1, 5 mg/kg day): 0/10 | % T/C, average survival time ([2]; Experiment 2, 0.2 mg/kg day): 146% | number of longterm survivors, i.e., after 60 days ([2]; Experiment 2, 0.2 mg/kg day): 0/10 | % T/C, average survival time ([2]; Experiment 2, 1 mg/kg day): 107% | number of longterm survivors, i.e., after 60 days ([2]; Experiment 2, 1 mg/kg day): 0/10 | % T/C, average survival time ([2]; Experiment 2, 1.5 mg/kg day): 79% | number of longterm survivors, i.e., after 60 days ([2]; Experiment 2, 1.5 mg/kg day): 0/10 | % T/C, average survival time ([2]; Experiment 3, 0.12 mg/kg day): 115% | number of longterm survivors, i.e., after 60 days ([2]; Experiment 3, 0.12 mg/kg day): 0/10 | % T/C, average survival time ([2]; Experiment 3, 0.25 mg/kg day): 188% | number of longterm survivors, i.e., after 60 days ([2]; Experiment 3, 0.25 mg/kg day): 1/10 | % T/C, average survival time ([2]; Experiment 3, 0.5 mg/kg day): 181% | number of longterm survivors, i.e., after 60 days ([2]; Experiment 3, 0.5 mg/kg day): 0/10 | % T/C, average survival time ([2]; Experiment 3, 1 mg/kg day): 223% | number of longterm survivors, i.e., after 60 days ([2]; Experiment 3, 1 mg/kg day): 1/10 | active dose relative to adriamycin, in words ([2]; once a day): active at lower doses than adriamycin | effect on ascitic tumor growth, in words ([2]; once a day): remarkable effect on ascitic tumor growth | Toxicity (solid tumors; 0.5 mg/kg i.v.): 0/10 | % T/C (mean tumor weight) (solid tumors; 0.5 mg/kg i.v., tenth day): 76% | Tumor Weight (solid tumors; 0.5 mg/kg i.v., tenth day): 2.295 | Toxicity (solid tumors; 1 mg/kg i.v.): 0/10 | % T/C (mean tumor weight) (solid tumors; 1 mg/kg i.v., tenth day): 51% | Tumor Weight (solid tumors; 1 mg/kg i.v., tenth day): 1.550 | inhibition of the tumor growth (solid tumors; 1 mg/kg i.v., higher non toxic dose tested, tenth day): 50% | Toxicity (solid tumors; 2 mg/kg i.v.): 3/10 | % T/C (mean tumor weight) (solid tumors; 2 mg/kg i.v., tenth day): 16% | Tumor Weight (solid tumors; 2 mg/kg i.v., tenth day): 0.485 | therapeutic index (T.I.) (solid tumors): 3.7 | Toxicity (L 1210 leukemia cells; 0.75 mg/kg): 0/10 | % T/C (mean survival time) (L 1210 leukemia cells; 0.75 mg/kg): 156% | Average Survival Time (L 1210 leukemia cells; 0.75 mg/kg): 12.5 | Toxicity (L 1210 leukemia cells; 1.5 mg/kg): 1/10 | % T/C (mean survival time) (L 1210 leukemia cells; 1.5 mg/kg): 162% | Average Survival Time (L 1210 leukemia cells; 1.5 mg/kg): 13 | Toxicity (L 1210 leukemia cells; 3 mg/kg): 7/10 | % T/C (mean survival time) (L 1210 leukemia cells; 3 mg/kg): 87% | Average Survival Time (L 1210 leukemia cells; 3 mg/kg): 7 | average survival time of treated animals, in words (L 1210 leukemia cells; non toxic doses tested): increased considerably | active dose relative to adriamycin, in words (L 1210 leukemia cells; single treatment): active at lower doses than adriamycin | cytotoxic activity, in words [3]: the same cytotoxic activity as adriamycin

COc1cccc2c1C(=O)c1c(O)c3c(c(O)c1C2=O)C[C@@](O)(C(=O)CO)C[C@@H]3O[C@H]1C[C@H](N)[C@H](O)[C@H](C)O1 [Adriamycin, reference compound]
IC50 (HeLa cells; [4]): 0.2 µg/mL (≈ 0.368 µM) | IC50 (HeLa cells; [5]): 0.039 µg/mL (≈ 0.0718 µM) | activity at 0.006 µg/mL [1, 6]: 26% | activity at 0.0125 µg/mL [1, 6]: 0% | activity at 0.025 µg/mL [1, 6]: 0% | % T/C, average survival time ([2]; Experiment 1, 1 mg/kg day): 146% | number of longterm survivors, i.e., after 60 days ([2]; Experiment 1, 1 mg/kg day): 1/9 | % T/C, average survival time ([2]; Experiment 1, 2 mg/kg day): 400% | number of longterm survivors, i.e., after 60 days ([2]; Experiment 1, 2 mg/kg day): 5/10 | % T/C, average survival time ([2]; Experiment 1, 5 mg/kg day): 311% | number of longterm survivors, i.e., after 60 days ([2]; Experiment 1, 5 mg/kg day): 4/10 | % T/C, average survival time ([2]; Experiment 2, 0.2 mg/kg day): 107% | number of longterm survivors, i.e., after 60 days ([2]; Experiment 2, 0.2 mg/kg day): 0/10 | % T/C, average survival time ([2]; Experiment 2, 1 mg/kg day): 143% | number of longterm survivors, i.e., after 60 days ([2]; Experiment 2, 1 mg/kg day): 1/10 | % T/C, average survival time ([2]; Experiment 2, 5 mg/kg day): 225% | number of longterm survivors, i.e., after 60 days ([2]; Experiment 2, 5 mg/kg day): 1/10 | % T/C, average survival time ([2]; Experiment 2, 10 mg/kg day): 193% | number of longterm survivors, i.e., after 60 days ([2]; Experiment 2, 10 mg/kg day): 0/10 | % T/C, average survival time ([2]; Experiment 3, 0.1 mg/kg day): 100% | number of longterm survivors, i.e., after 60 days ([2]; Experiment 3, 0.1 mg/kg day): 0/10 | % T/C, average survival time ([2]; Experiment 3, 1 mg/kg day): 169% | number of longterm survivors, i.e., after 60 days ([2]; Experiment 3, 1 mg/kg day): 1/9 | Toxicity (solid tumors; 2.5 mg/kg i.v.): 0/10 | % T/C (mean tumor weight) (solid tumors; 2.5 mg/kg i.v., tenth day): 48% | Tumor Weight (solid tumors; 2.5 mg/kg i.v., tenth day): 1.465 | Toxicity (solid tumors; 3.5 mg/kg i.v.): 7/10 | % T/C (mean tumor weight) (solid tumors; 3.5 mg/kg i.v., tenth day): 12% | Tumor Weight (solid tumors; 3.5 mg/kg i.v., tenth day): 0.364 | therapeutic index (T.I.) (solid tumors): 1.8 | Toxicity (L 1210 leukemia cells; 2.5 mg/kg): 0/10 | % T/C (mean survival time) (L 1210 leukemia cells; 2.5 mg/kg): 156% | Average Survival Time (L 1210 leukemia cells; 2.5 mg/kg): 12.5 | Toxicity (L 1210 leukemia cells; 5 mg/kg): 0/10 | % T/C (mean survival time) (L 1210 leukemia cells; 5 mg/kg): 175% | Average Survival Time (L 1210 leukemia cells; 5 mg/kg): 14 | Toxicity (L 1210 leukemia cells; 10 mg/kg): 4/10 | % T/C (mean survival time) (L 1210 leukemia cells; 10 mg/kg): 200% | Average Survival Time (L 1210 leukemia cells; 10 mg/kg): 16
